Source: ChEMBL document CHEMBL1681636, “Exploring subtype selectivity and metabolic stability of a novel series of ligands for the benzodiazepine binding site of the GABAA receptor” (Bioorg Med Chem Lett, 2011)
The source made the active and inactive calls. No cut-off for these calls is given here.

Assays:
[1] = target: T1, Gamma-aminobutyric acid receptor subunit alpha-1 (Homo sapiens) (UniProt P14867); assay: Agonist activity at recombinant GABAA receptor subunit alpha-1 expressed in CHO cells at 3 uM by sensitive fluorometric read-out assay relative to midazolam; type: functional, cell-based
T1 sequence (whole entry): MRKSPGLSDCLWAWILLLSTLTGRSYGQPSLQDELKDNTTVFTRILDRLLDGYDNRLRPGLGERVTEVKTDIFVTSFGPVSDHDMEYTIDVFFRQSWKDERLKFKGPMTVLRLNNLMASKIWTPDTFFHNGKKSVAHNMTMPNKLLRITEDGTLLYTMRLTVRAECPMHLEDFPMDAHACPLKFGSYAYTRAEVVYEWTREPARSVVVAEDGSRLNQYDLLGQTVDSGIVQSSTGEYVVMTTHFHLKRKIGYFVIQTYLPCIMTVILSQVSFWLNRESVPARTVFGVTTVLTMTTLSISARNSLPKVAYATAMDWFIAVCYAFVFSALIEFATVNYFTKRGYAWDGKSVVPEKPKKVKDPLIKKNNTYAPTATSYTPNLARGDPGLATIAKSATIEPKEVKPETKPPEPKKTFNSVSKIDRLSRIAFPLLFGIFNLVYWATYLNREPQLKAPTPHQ

[2] = target: T2, Gamma-aminobutyric acid receptor subunit alpha-2 (Homo sapiens) (UniProt P47869); assay: Agonist activity at recombinant GABAA receptor subunit alpha-2 expressed in CHO cells at 3 uM by sensitive fluorometric read-out assay relative to midazolam; type: functional, cell-based
T2 sequence (whole entry): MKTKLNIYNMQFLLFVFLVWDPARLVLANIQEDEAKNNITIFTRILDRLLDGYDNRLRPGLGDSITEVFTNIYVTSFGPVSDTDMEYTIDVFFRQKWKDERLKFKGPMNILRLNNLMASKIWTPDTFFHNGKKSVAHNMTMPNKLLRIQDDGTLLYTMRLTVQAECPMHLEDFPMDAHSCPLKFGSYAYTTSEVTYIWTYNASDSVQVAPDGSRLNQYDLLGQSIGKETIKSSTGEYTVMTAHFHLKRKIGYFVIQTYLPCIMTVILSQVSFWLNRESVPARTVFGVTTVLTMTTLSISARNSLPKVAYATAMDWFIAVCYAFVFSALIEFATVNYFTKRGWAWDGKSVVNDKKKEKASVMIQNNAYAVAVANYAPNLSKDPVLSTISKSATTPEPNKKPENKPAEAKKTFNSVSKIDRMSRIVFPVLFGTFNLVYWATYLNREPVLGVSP

[3] = target: T3, Gamma-aminobutyric acid receptor subunit alpha-2 (Homo sapiens, UniProt P47869); assay: Displacement of [3H]flumazenil from GABAA receptor subunit alpha-2 expressed in CHO cells; type: cell-based
T3 sequence (P47869 whole entry): T2 sequence (whole entry)

[4] = target: T4, Gamma-aminobutyric acid receptor subunit alpha-1 (Homo sapiens, UniProt P14867); assay: Displacement of [3H]flumazenil from GABAA receptor subunit alpha-1 expressed in CHO cells; type: cell-based
T4 sequence (P14867 whole entry): T1 sequence (whole entry)

[5] = Intrinsic clearance in rat liver microsomes at 5 uM after 60 mins; type: ADME, Microsome
[6] = target: T1, Gamma-aminobutyric acid receptor subunit alpha-1 (Homo sapiens); assay: Agonist activity at recombinant GABAA receptor subunit alpha-1 expressed in CHO cells at 1 uM by sensitive fluorometric read-out assay relative to midazolam; type: functional, cell-based
[7] = target: T2, Gamma-aminobutyric acid receptor subunit alpha-2 (Homo sapiens); assay: Agonist activity at recombinant GABAA receptor subunit alpha-2 expressed in CHO cells at 1 uM by sensitive fluorometric read-out assay relative to midazolam; type: functional, cell-based

Row | Efficacy [1] | Efficacy [2] | IC50 [3] | IC50 [4] | microsomal CLint at 5 µM [5] | Structure (SMILES) | Efficacy [6] | Efficacy [7]
1 | 38% | 50% |  |  |  | Clc1ccc(-n2nc3c4c(ncc3c2OCc2cccc(Cl)c2)CCCC4)cc1 |  | 
2 | 4% | 32% | 461 nM |  |  | Clc1ccc(-n2nc3c4c(ncc3c2OCc2ccccc2Cl)CCOC4)cc1 |  | 
3 | 25% | 50% | 271 nM | 46 nM | 128 µL/min/mg | Clc1ccc(-n2nc3c4c(ncc3c2OCc2ccccc2Cl)CCCC4)cc1 |  | 
4 | 114% | 96% | 605 nM | 242 nM |  | Clc1ccc(-n2nc3c4c(ncc3c2OCc2ccccc2Cl)CCCCC4)cc1 |  | 
5 | inactive | inactive | > 3000 nM | > 3000 nM |  | Clc1ccc(-n2nc3c4c(ncc3c2Oc2ccccc2Cl)CCCC4)cc1 |  | 
6 | 20% | 42% | 177 nM | 157 nM |  | Clc1ccc(COc2c3cnc4c(c3nn2-c2ccc(Cl)cc2)CCCC4)cc1 |  | 
7 | -15% | 19% | 155 nM | 50 nM |  | Clc1ccccc1COc1c2cnc3ccccc3c2nn1-c1ccc2c(c1)OCO2 |  | 
8 | 84% | 94% |  |  |  | FC(F)(F)c1ccccc1COc1c2cnc3c(c2nn1-c1ccc(Cl)cc1)CCCC3 |  | 
9 | 18% | 64% | 185 nM | 94 nM |  | Clc1ccc(-n2nc3c4c(ncc3c2OCC2CC2)CCCC4)cc1 |  | 
10 | 4% | 23% | 213 nM | 67 nM |  | CC1(C)CCc2ncc3c(OCc4ccccc4Cl)n(-c4ccc(Cl)cc4)nc3c2C1 |  | 
11 | 24% | 41% | 57 nM | 50 nM |  | Fc1ccc(COc2c3cnc4c(c3nn2-c2ccc(Cl)cc2)CCCC4)cc1 |  | 
12 | 37% | 36% | 472 nM | 74 nM |  | Clc1ccc(-n2nc3c(cnc4ccccc43)c2OCC2CC2)cc1 |  | 
13 | -8% | 17% | 2 nM | 1 nM |  | Fc1ccccc1-n1nc2c(cnc3ccccc32)c1OCc1ccccc1Cl |  | 
14 | 31% | 83% | 154 nM | 64 nM |  | Fc1ccccc1COc1c2cnc3c(c2nn1-c1ccc(Cl)cc1)CCCC3 |  | 
15 | 80% | 35% | 2110 nM | 134 nM |  | Clc1ccc(-n2nc3c(cnc4ccc(-n5ccnc5)cc43)c2OCC2CC2)cc1 |  | 
16 | 13% | 22% | 265 nM | 64 nM |  | Clc1ccc(-n2nc3c(cnc4ccccc43)c2OCc2ccccc2Cl)cc1 |  | 

Row | Structure (SMILES) | Efficacy [1] | Efficacy [2] | IC50 [3] | IC50 [4] | microsomal CLint at 5 µM [5] | Efficacy [6] | Efficacy [7]
17 | O=C1C2C=Nc3ccccc3C2=NN1c1ccc(Cl)cc1 (centres undefined) [CGS-9896] |  |  | 4 nM | 1 nM |  | 38% | 47%
